Test results as given in US20170335336A1, “USE OF A SELECTABLE MARKER GENE IN SUGAR BEET PROTOPLASTS TRANSFORMATION METHOD AND SYSTEM” (SESVanderHave N.V., priority 2014, published 2017).

Assays:
[1] = system: wild type sugar beet protoplasts; assay: killing curve for optimal herbicide concentration; assay type: cell-based, sugar beet (Beta vulgaris L.); settings: killing curve (Table 1 and Table 2)
Experimental: The optimal herbicide (ALS inhibitor) concentration used in the method according to the invention was determined from a killing curve concentration for two preferred ALS inhibitors (Foramsulfuron and Ethoxysulfuron) and was established as follows: • To use optimal concentration of herbicide for selection of transformed sugar beet protoplasts, killing curve was developed on wild type sugar beet protoplasts with the following concentrations (Table 1 and Table 2). Based on the results obtained from the killing curve experiments concentration of 5×10^−9M for foramsulfuron and 5×10^−11M for ethoxysulfuron were selected for using with transformed sugar beet protoplasts with pS189 plasmid DNA carrying the mutated BvALS nucleotide sequence.

[2] = system: non-transformed protoplasts; assay: control experiment: non-transformed protoplasts on selection media; assay type: cell-based, sugar beet (Beta vulgaris L.)
Experimental: Transformation experiments were performed using plasmid DNA (pS189) according to the standard PEG transformation system under two selection media containing 5×10^−9M foramsulfuron (ALF) and 5×10^−11M ethoxysulfuron (ALE) concentrations. The selection of only the transformed protoplasts were evidenced by the number of calli recovered from each transformation experiment. […] So far seven transformation experiments were performed for ALF and six experiments for ALE. From ALF experiments, about 1799 buds and 89 regenerated plantlets were obtained (Table 3).

## CCOc1ccccc1OS(=O)(=O)NC(=O)Nc1nc(OC)cc(OC)n1 [ethoxysulfuron]
[1]
  concentration selected from killing curve experiments for selection of transformed protoplasts: 0.05 nM
[2]; selection medium containing 5×10^−11M ethoxysulfuron (ALE)
  calli / survival of cells on selection medium: did not result in any calli or survival of cells

## COc1cc(OC)nc(NC(=O)NS(=O)(=O)c2cc(NC=O)ccc2C(=O)N(C)C)n1 [foramsulfuron]
[1]
  concentration selected from killing curve experiments for selection of transformed protoplasts: 5 nM
[2]; selection medium containing 5×10^−9M foramsulfuron (ALF)
  calli / survival of cells on selection medium: did not result in any calli or survival of cells
